Earlier results, collected in US20250367333A1, “LIPID NANOPARTICLE FOR RADIATION THERAPY, MANUFACTURING METHOD, COMBINATION COMPOSITION, AND KIT” (KABUSHIKI KAISHA TOSHIBA, priority 2024, published 2025).

Details: radioactive material

[At] [astatine]
half-life: approximately 7 hours
